PMC7156612, “Olinciguat, an Oral sGC Stimulator, Exhibits Diverse Pharmacology Across Preclinical Models of Cardiovascular, Metabolic, Renal, and Inflammatory Disease” (Frontiers in Pharmacology, 2020)
Read-outs that look alike come from different tables or passages of the source.

Experiments:
[1] = Dahl salt-sensitive rat model; assay type: in vivo; conditions: male, Dahl salt-sensitive (DSS), rat, plasma, oral; DSS rats, 10 mg/kg/day in chow, week 6, n=6; read-out: average total plasma concentration of olinciguat
Procedure: (§1) The Dataquest A.R.T.™ acquisition and analysis system (Data Sciences International [DSI], St. Paul, MN) was employed to monitor and analyze hemodynamic data from conscious, freely moving rats surgically implanted with a telemetry pressure transmitter (PA-C40). Telemetry transmitter implantation was performed on rats under sterile conditions. Rats were anesthetized with isoflurane and body temperature was maintained with a heating pad during surgery. A laparotomy was performed to expose the abdominal aorta. The catheter tip of the telemetry transmitter was inserted into the abdominal aorta and secured with a 5-0 silk suture (Ethicon, Inc., Somerville, NJ). The abdominal incision was closed with uninterrupted suture (4-0 silk, Ethicon, Inc., Somerville, NJ) and the telemetry transmitter was placed in the abdominal cavity and secured to the abdominal wall. Approximately 100 µl of 0.25% marcaine was applied directly to the closed abdominal wall, and the skin was then closed with suture (4-0 Vicryl® absorbable, Ethicon, Inc., Somerville, NJ). Buprenorphine (0.05 mg/kg/day, subcutaneous [s.c.]) was administered immediately after the surgery for postoperative pain relief. After recovery from anesthesia, rats were returned to their home cages, placed on DSI receivers, and allowed a 5- to 14-day recovery period. Arterial hemodynamics were measured continuously and recorded throughout the study. For acute studies, analysis was based on hourly averages, for chronic studies, analysis was based on daily or weekly averages.
(§2) Male DSS rats (n = 48, 230–300 g) were implanted with telemetry transmitters as described above. During the 2-week pretreatment period and the 6-week treatment period, rats were either fed a NS diet (0.3% NaCl, n=8) or a HS diet (8% NaCl). During the treatment period, one group of HS rats was continued on HS diet (HS, n=8) and a second group of HS rats was switched to a HS diet containing olinciguat targeting the dose equivalent of 10 mg/kg/day (OLI10, n=8). At the end of the 6-week treatment period, body weight was measured, urine was collected over a 24-h period using a metabolic cage for urinalysis, and blood samples were collected for plasma biomarker analyses. At the end of the study, rats were anesthetized, and whole bodies were perfused via the left ventricle with heparinized PBS (1 U/ml heparin) containing IBMX (1mM). Organs were collected and weighed. All organ weights were normalized to body weight. After weighing the heart, the right ventricular free wall was removed, and the left ventricular free wall plus left ventricular septum (LV+S) were weighed.
(§3) In the DSS model, daily MAP (24-h average) data were analyzed using two-way ANOVA, with time and treatment group as independent variables. For each day, groups were compared to the HS group with a Dunnett's post-hoc test. Body weight, LV+S, cardiac weight, lung weight, kidney weight, plasma NT-proBNP, and 24-h urine protein excretion (UPE) data were analyzed by one-way ANOVA, followed by Dunnett's multiple comparison to the HS group.

[2] = system: Dahl salt-sensitive (DSS) rats on high salt diet; experiment: Dahl salt-sensitive rat model; assay type: in vivo; conditions: for MAP at the end of the treatment period: 6 weeks; for LV+S weight normalized to body weight: end of 6-week treatment
Procedure: as §1, §2, §3

[3] = Rat post-myocardial infarction model; assay type: in vivo; conditions: male, Sprague-Dawley, rat, plasma, oral; MI rats, 30 mg/kg/day in chow; read-out: olinciguat plasma concentration at week 8
Procedure: (§4) Male Sprague-Dawley rats (n = 24, 270–330 g) were studied. MI was induced by permanent ligation of the left anterior descending (LAD) coronary artery. Briefly, after anesthesia with 5% isoflurane, rats were intubated and ventilated using a small animal ventilator (Model 683, Harvard Apparatus). Surgery was performed under sterile conditions. Briefly, the heart was exposed through left thoracotomy, the pericardium was incised, and the LAD coronary artery was ligated with 4-0 silk suture (Ethicon, Inc.). The lungs were inflated, and the chest wall was closed in three layers. Approximately 100 µl of 0.25% marcaine was applied directly to the edge of the skin incision. Long-acting buprenorphine (1 mg/kg/day, s.c.) was administered after the surgery for postoperative pain relief. Sham-operated rats underwent the same procedure without ligation of the LAD.
(§5) Treatment was initiated within 24 h following surgery. The Sham and MI control groups were maintained on chow for the entire 8-week treatment period. Rats in the MI + olinciguat group received olinciguat in chow at the targeted dose of 30 mg/kg/day for the entire 8-week treatment period. Ejection fraction (EF) was measured at week 8 by echocardiography using the long axis view of the left ventricle in B-mode.
(§6) In the post-MI study, data were analyzed by one-way ANOVA, followed by Dunnett's multiple comparison to the MI group.

[4] = system: Sprague-Dawley rats with LAD ligation (post-MI); experiment: Rat post-myocardial infarction model; assay type: in vivo; conditions: 30 mg/kg/day, total plasma concentration x 1.0% free
Procedure: as §4, §5, §6

[5] = design: method as in Mittleman et al., 2017; conditions: healthy human subjects, ref Mittleman et al., 2017, cited from earlier work
[6] = system: human subcutaneous resistance arteries; experiment: Human vascular smooth muscle relaxation (U46619-precontracted arteries); assay type: cell-based; conditions: for EC50: Homo sapiens
Procedure: The effect of olinciguat on relaxation of contracted human subcutaneous resistance arteries was determined according to methods described in ([Tobin et al., 2018]). In brief, human subcutaneous resistance arteries were obtained from three donors (females ages 27–51) undergoing elective surgeries. Arteries were mounted in a tissue bath and precontracted with the thromboxane mimetic, U46619 (100 nM). Only tissues containing functional endothelium, as determined by relaxation in response to acetylcholine (10 µM), were used. A cumulative concentration-response curve (0.1 to 10 µM) was generated for olinciguat, followed by addition of the NO donor sodium nitroprusside (100 μM). Percent relaxation at each olinciguat concentration was determined relative to the U46619-mediated contraction. Using GraphPad Prism v.7, a sigmoidal dose-response (variable slope) curve was fit with the bottom value constrained to zero to determine the EC50.

For NC(=O)[C@](O)(CNc1nc(-c2cc(-c3ccon3)n(Cc3ccccc3F)n2)ncc1F)C(F)(F)F [olinciguat, (R)-3,3,3-trifluoro-2-(((5-fluoro-2-(1-(2-fluorobenzyl)-5-(isoxazol-3-yl)-1H-pyrazol-3-yl)pyrimidin-4-yl)amino)methyl)-2-hydroxypropanamide], the concentration at 6 weeks [1] was 25.4 ± 3.8 nM, the “Olinciguat concentration (free)” value ([2]; 10 mg/kg/day, total plasma concentration x 1.0% free) was 0.22–0.29 nM^e and the “MAP at the end of the treatment period” value ([2]; HS diet, olinciguat 10 mg/kg/day in chow) was 192 mmHg. The “MAP at the end of the treatment period” value ([2]; HS diet, olinciguat 10 mg/kg/day in chow, listed as OLI10) was 192 ± 7 mmHg, the “MAP on day 16 (after treatment initiation)” value ([2]; HS diet, olinciguat 10 mg/kg/day in chow, 161 ± 7 mmHg on day 14 before treatment) was 146 ± 7 mmHg and the “lung weight, fold higher than in NS” value ([2]; HS diet, olinciguat 10 mg/kg/day vs NS control) was 1.2 fold. The “lung weight normalized to body weight” value ([2]; HS diet, olinciguat 10 mg/kg/day, HS 8.9 ± 1.7) was “↓ lung weight”, the “lung weight normalized to body weight” value ([2]; HS diet, olinciguat 10 mg/kg/day, HS 8.9 ± 1.7, listed as OLI10) was 4.0 ± 0.1 g/kg BW and the normalized kidney weight ([2]; HS diet, olinciguat 10 mg/kg/day, HS 10.9 ± 0.5, not significantly different) was 10.2 ± 0.23 g/kg BW. The “24-h urine protein excretion (UPE)” value ([2]; HS diet, olinciguat 10 mg/kg/day, HS 643 ± 60, not statistically significant) was 599 ± 70 mg, the “average body weight at the end of the treatment period” value ([2]; HS diet, olinciguat 10 mg/kg/day, HS control 364 ± 19) was 412 ± 11 g and the “cardiac weight vs HS” value ([2]; HS diet, olinciguat 10 mg/kg/day, data not shown) was “lower in OLI10 than HS”. For the same molecule, the “LV+S weight normalized to body weight” value ([2]; HS diet, olinciguat 10 mg/kg/day, HS 4.1 ± 0.2) was “↓ cardiac hypertrophy”, the “LV+S weight normalized to body weight” value ([2]; HS diet, olinciguat 10 mg/kg/day, HS 4.1 ± 0.2, listed as OLI10) was 3.3 ± 0.1 g/kg BW and the “difference in MAP between olinciguat-treated and HS disease control at end of treatment period” value ([2]; HS diet, olinciguat 10 mg/kg/day, lower than HS, listed as OLI10) was 15 mmHg. For the same molecule, the “plasma NT-proBNP” value ([2]; HS diet, olinciguat 10 mg/kg/day, n=6, HS 2,833 ± 416) was “↓ NT-proBNP”, the “plasma NT-proBNP” value ([2]; HS diet, olinciguat 10 mg/kg/day, n=6, HS 2,833 ± 416, listed as OLI10) was 1,235 ± 301 pg/ml and the “NT-proBNP, percent lower than untreated controls” value ([2]; olinciguat 10 mg/kg/day) was 56%. For the same molecule, the concentration at 8 weeks [3] was 167 ± 11 nM, the “Olinciguat concentration (free)” value [4] was 1.6–1.8 nM^e and the terminal-phase half-life ([5]; repeat dosing with oral tablets) was ~ 30 h. The “renal clearance, percent of apparent total body clearance [CL/F]” value [5] was no more than 0.3%, the “mean relaxation at 10 μM” value ([6]; 10 μM olinciguat, relative to U46619-mediated contraction) was 94.8% and the EC50 ([6]; Table 2 summary, read-out: Human vascular relaxation EC50, olinciguat concentration (range = 95% CI)) was 16 to 38 nM. For the same molecule, the EC50 ([6]; pre-contracted with U46619 100 nM, n=3 donors, 95% CI 16 to 38 nM, read-out: EC50, relaxation of pre-contracted arteries) was 24.3 nM.
